Results: PubChem BioAssay (NCI)
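Each compound was tested at five concentrations against cells in 96-well plates for 48 hours. Definition used: TGI = concentration required for complete inhibition of growth.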

How the values were obtained:
Experiment in all cases: inhibition of tumour cell growth, NCI panel, 48 h
[1] = tested on: A498 renal
[2] = tested on: BT-549 breast
[3] = tested on: CAKI-1 renal
[4] = tested on: CCRF-CEM leukemia
[5] = tested on: DU-145 prostate
[6] = tested on: HCC-2998 colon
[7] = tested on: HCT-116 colon
[8] = tested on: K-562 leukemia
[9] = tested on: M14 melanoma
[10] = tested on: MDA-MB-435
[11] = tested on: OVCAR-3 ovarian
[12] = tested on: OVCAR-8 ovarian
[13] = tested on: SK-MEL-2 melanoma
[14] = tested on: SNB-75 CNS
[15] = tested on: UACC-257 melanoma

Row | SMILES | TGI [1] [µM] | TGI [2] [µM] | TGI [3] [µM] | TGI [4] [µM] | TGI [5] [µM] | TGI [6] [µM] | TGI [7] [µM] | TGI [8] [µM] | TGI [9] [µM] | TGI [10] [µM] | TGI [11] [µM] | TGI [12] [µM] | TGI [13] [µM] | TGI [14] [µM] | TGI [15] [µM]
1 | COc1ccc(N=C/C=C/C(=C/COC(C)=O)OC(C)=O)cc1 | 62.9 | > 100 | 63.8 | > 100 | > 100 | > 100 | 28.7 | 19.2 | > 100 | > 100 | > 100 | > 100 | 48.1 | > 100 | 87.2
2 | CSc1ccc(C=C2N=C(c3ccccc3)N(c3cc(C(=O)c4ccccc4)ccc3N3C(=O)/C(=C/c4ccc(SC)cc4)N=C3c3ccccc3)C2=O)cc1 | > 100 | > 100 | > 100 | 62.4 | > 100 | > 100 | > 100 | > 100 | > 100 | > 100 | 55.1 | > 100 | > 100 | 61.5 | > 100
3 | C=C1C(=O)OC2C3C(=C)[C@@H](OC(C)=O)CC3C(C)=CC(OC(=O)C(C)(O)C(C)OC(C)=O)[C@@H]12 (stereo not given in full) | 32.3 | 26.7 | 12.4 | 7.51 | 30.3 | 29.7 | 17.9 | 14.8 | 19.7 | 28.3 | 21.8 | 37.9 | 20.6 | 28.4 | 23.2
4 | CC(=O)N(CCc1ccccc1)C(C)(C#N)c1ccccc1 (stereo not given) | > 100 | > 100 | > 100 | > 100 | > 100 | > 100 | > 100 | > 100 | > 100 | > 100 | > 100 | > 100 | > 100 | > 100 | > 100
5 | C[N+](C)(C)C(Cc1c[nH]c(=S)[nH]1)C(=O)O (stereo not given) | > 100 | > 100 | > 100 | > 100 | > 100 | > 100 | > 100 | > 100 | > 100 | > 100 | > 100 | > 100 | > 100 | > 100 | > 100
6 | O=C1C(c2c(O)n(-c3ccccc3)c3ccccc23)=Nc2ccccc21 | 75.7 | > 100 | > 100 | > 100 | > 100 | 75.5 | > 100 | > 100 | > 100 | > 100 | > 100 | > 100 | 97.3 | 40.4 | > 100
7 | CC(=O)NC1C(OCc2ccccc2)OC(CO)C(O)C1OCC(=O)NC(C)C(=O)NC(CCC(=O)Nc1ccc2c(c1)CN1C(=O)c3ccccc3C1=N2)C(N)=O (stereo not given) | > 100 | > 100 | > 100 | > 100 | > 100 | > 100 | > 100 | > 100 | > 100 | > 100 | > 100 | > 100 | > 100 | > 100 | > 100
8 | O=C(CCl)Nc1ccc(-c2nc3ccccc3s2)cc1 | 11.7 | 2.95 | 3.38 | > 36.7 | 38 | 5.91 | 5.81 | 4.56 | 4.98 | 12.2 | 3.61 | 9.66 | 8.37 | 11 | 11.6
9 | Nc1nc(SCC(=O)c2ccccc2)nc2nc3c(c(-c4ccccc4)c12)CCCC3 | 42.9 | > 100 | > 100 | > 100 | > 100 | > 100 | > 100 | > 100 | > 100 | > 100 | 94.5 | 89 | > 100 | 78.6 | > 100
10 | CC(=O)Nc1ccccc1S(=O)(=O)c1c(-c2c(C)c(Cl)c(C)c(Cl)c2C)noc1C | > 100 | > 100 | 79.3 | 71.2 | > 100 | > 100 | > 100 | > 100 | > 100 | > 100 | > 100 | > 100 | > 100 | 34.6 | > 100
11 | c1ncc(C23C4C5C6C4C2C6C53)[nH]1 (stereo not given) | > 100 | > 100 | > 100 | > 100 | > 100 | > 100 | > 100 | > 100 | > 100 | > 100 | > 100 | > 100 | > 100 | > 100 | > 100
12 | COC(=O)/C=C1/OC(c2ccccc2)=CC1=O | 18.7 | 32 | 33.9 | > 61.2 | 19.4 | 33.5 | 33.2 | 44.6 | 51.5 | 35.5 | 39.4 | 35.8 | 47.9 | 30.9 | > 52.7
